According to the supplement of paper PMC10307832:

How the values were obtained:
Test in all cases: relative viability (nuclei count vs DMSO), 5 days (fraction); higher = more cells survive
Everolimus + Pemetrexed = compound: CO[C@H]1C[C@@H]2CC[C@@H](C)[C@@](O)(O2)C(=O)C(=O)N2CCCC[C@H]2C(=O)O[C@H]([C@H](C)C[C@@H]2CC[C@@H](OCCO)[C@H](OC)C2)CC(=O)[C@H](C)/C=C(\C)[C@@H](O)[C@@H](OC)C(=O)[C@H](C)C[C@H](C)/C=C/C=C/C=C/1C [Everolimus] + Nc1nc2[nH]cc(CCc3ccc(C(=O)N[C@@H](CCC(=O)O)C(=O)O)cc3)c2c(=O)[nH]1 [Pemetrexed] (partner 0.2 µM)
In short: (§1)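 A single step with final 0.05% Triton X-100, 1% formaldehyde and 1 ug/ml Hoechst fixed the cells and stained nuclei 5 days after treatment. Lung cancer cell lines in 1536-well plates had been treated by pin tool the day after seeding with one drug alone or a fixed anchor-drug dose plus five library-drug doses (not always all listed) in √10 steps, and nuclei were counted on 4× images. Relative viability is the ratio of nuclei in treated wells to nuclei in vehicle wells, taken as the median of duplicate plates.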

Everolimus + Olaparib = compound: CO[C@H]1C[C@@H]2CC[C@@H](C)[C@@](O)(O2)C(=O)C(=O)N2CCCC[C@H]2C(=O)O[C@H]([C@H](C)C[C@@H]2CC[C@@H](OCCO)[C@H](OC)C2)CC(=O)[C@H](C)/C=C(\C)[C@@H](O)[C@@H](OC)C(=O)[C@H](C)C[C@H](C)/C=C/C=C/C=C/1C [Everolimus] + O=C(c1cc(Cc2n[nH]c(=O)c3ccccc23)ccc1F)N1CCN(C(=O)C2CC2)CC1 [Olaparib] (partner 8 µM)
In short: as §1

Everolimus + Vorinostat = compound: CO[C@H]1C[C@@H]2CC[C@@H](C)[C@@](O)(O2)C(=O)C(=O)N2CCCC[C@H]2C(=O)O[C@H]([C@H](C)C[C@@H]2CC[C@@H](OCCO)[C@H](OC)C2)CC(=O)[C@H](C)/C=C(\C)[C@@H](O)[C@@H](OC)C(=O)[C@H](C)C[C@H](C)/C=C/C=C/C=C/1C [Everolimus] + O=C(CCCCCCC(=O)Nc1ccccc1)NO [Vorinostat] (partner 1 µM)
In short: as §1

Everolimus + Linsitinib = compound: CO[C@H]1C[C@@H]2CC[C@@H](C)[C@@](O)(O2)C(=O)C(=O)N2CCCC[C@H]2C(=O)O[C@H]([C@H](C)C[C@@H]2CC[C@@H](OCCO)[C@H](OC)C2)CC(=O)[C@H](C)/C=C(\C)[C@@H](O)[C@@H](OC)C(=O)[C@H](C)C[C@H](C)/C=C/C=C/C=C/1C [Everolimus] + C[C@]1(O)C[C@@H](c2nc(-c3ccc4ccc(-c5ccccc5)nc4c3)c3c(N)nccn32)C1 [Linsitinib] (partner 1 µM)
In short: as §1

| Cell Line | relative viability (Everolimus + Pemetrexed; first compound 0.01 µM) | relative viability (Everolimus + Pemetrexed; first compound 0.03162 µM) | relative viability (Everolimus + Pemetrexed; first compound 0.1 µM) | relative viability (Everolimus + Pemetrexed; first compound 0.3162 µM) | relative viability (Everolimus + Pemetrexed; first compound 1 µM) | relative viability (Everolimus + Olaparib; first compound 0.01 µM) | relative viability (Everolimus + Olaparib; first compound 0.03162 µM) | relative viability (Everolimus + Olaparib; first compound 0.1 µM) | relative viability (Everolimus + Olaparib; first compound 0.3162 µM) | relative viability (Everolimus + Olaparib; first compound 1 µM) | relative viability (Everolimus + Vorinostat; first compound 0.01 µM) | relative viability (Everolimus + Vorinostat; first compound 0.03162 µM) | relative viability (Everolimus + Vorinostat; first compound 0.1 µM) | relative viability (Everolimus + Vorinostat; first compound 0.3162 µM) | relative viability (Everolimus + Vorinostat; first compound 1 µM) | relative viability (Everolimus + Linsitinib; first compound 0.01 µM) | relative viability (Everolimus + Linsitinib; first compound 0.03162 µM) | relative viability (Everolimus + Linsitinib; first compound 0.1 µM) | relative viability (Everolimus + Linsitinib; first compound 0.3162 µM) | relative viability (Everolimus + Linsitinib; first compound 1 µM) |
| --- | --- | --- | --- | --- | --- | --- | --- | --- | --- | --- | --- | --- | --- | --- | --- | --- | --- | --- | --- | --- |
| 201T | 0.365 | 0.383 | 0.32 | 0.307 | 0.317 | 0.716 | 0.802 | 0.724 | 0.786 | 0.783 | 0.844 | 0.908 | 0.81 | 0.806 | 0.809 | 0.805 | 0.876 | 0.78 | 0.78 | 0.823 |
| A549 | – | – | – | – | – | 0.204 | 0.234 | 0.232 | 0.237 | 0.215 | – | – | – | – | – | 0.484 | 0.308 | 0.231 | 0.241 | 0.223 |
| A-427 | 0.757 | 0.856 | 0.799 | 0.788 | 0.891 | 0.576 | 0.723 | 0.635 | 0.656 | 0.691 | 0.781 | 0.817 | 0.751 | 0.829 | 0.843 | 0.854 | 0.772 | 0.823 | 0.675 | 0.834 |
| ABC-1 | – | – | – | – | – | 1.17 | – | 1 | – | 0.749 | 0.56 | – | 0.741 | – | 0.941 | 0.599 | 0.351 | 0.55 | 0.446 | 0.535 |
| BEN | 0.552 | 0.458 | 0.501 | 0.521 | 0.618 | 0.671 | 0.472 | 0.505 | 0.512 | 0.59 | 0.401 | 0.337 | 0.368 | 0.353 | 0.391 | 0.571 | 0.355 | 0.338 | 0.334 | 0.326 |
| Calu-6 | – | – | – | – | – | 0.624 | 0.68 | 0.646 | 0.552 | 0.705 | – | – | – | – | – | 0.647 | 0.707 | 0.663 | 0.762 | 0.778 |
| ChaGo-K-1 | 0.247 | 0.265 | 0.26 | 0.244 | 0.249 | 0.424 | 0.492 | 0.466 | 0.401 | 0.494 | 0.678 | 0.688 | 0.62 | 0.662 | 0.726 | – | – | – | – | – |
| EBC-1 | – | – | – | – | – | 0.505 | 0.324 | 0.31 | 0.349 | 0.334 | – | – | – | – | – | 0.263 | 0.218 | 0.306 | 0.205 | 0.298 |
| IA-LM | – | – | – | – | – | 0.759 | 0.613 | 0.603 | 0.741 | 0.665 | 0.815 | 0.83 | 0.425 | 0.342 | 0.352 | 0.296 | 0.306 | 0.243 | 0.267 | 0.282 |
| NCI-H522 | 0.735 | 0.79 | 0.521 | 0.548 | 0.732 | 0.609 | 0.474 | 0.429 | 0.448 | 0.438 | 0.788 | 0.784 | 0.589 | 0.726 | 0.731 | – | – | – | – | – |
| NCI-H727 | – | – | – | – | – | 0.719 | 0.673 | 0.569 | 0.524 | 0.755 | 0.915 | 0.797 | 0.79 | 0.922 | 0.886 | 0.207 | 0.2 | 0.203 | 0.291 | 0.362 |
| NCI-H1299 | – | – | – | – | – | 0.953 | 0.987 | 0.994 | 1.04 | 0.841 | – | – | – | – | – | 0.855 | 1 | 0.544 | 0.848 | 0.819 |
| NCI-H1563 | 0.715 | 0.572 | 0.618 | 0.576 | 0.546 | – | – | – | – | – | – | – | – | – | – | 0.993 | 0.757 | 0.766 | 0.683 | 0.734 |
| NCI-H1648 | 0.544 | 0.538 | 0.659 | 0.629 | 0.742 | 0.577 | 0.473 | 0.613 | 0.597 | 0.482 | 0.422 | 0.383 | 0.307 | 0.423 | 0.406 | – | – | – | – | – |
| NCI-H1650 | 0.451 | 0.359 | 0.325 | 0.442 | 0.414 | 0.893 | 0.934 | 0.791 | 0.834 | 0.849 | 0.396 | 0.388 | 0.29 | 0.365 | 0.383 | – | – | – | – | – |
| NCI-H1703 | – | – | – | – | – | 0.36 | 0.218 | 0.333 | 0.233 | 0.337 | – | – | – | – | – | 0.293 | 0.281 | 0.447 | 0.488 | 0.463 |
| NCI-H1792 | 0.335 | 0.245 | 0.318 | 0.315 | 0.183 | 0.21 | 0.155 | 0.167 | 0.113 | 0.119 | – | – | – | – | – | 0.449 | 0.38 | 0.202 | 0.148 | 0.159 |
| NCI-H2170 | 0.259 | 0.26 | 0.248 | 0.271 | 0.257 | 0.361 | 0.285 | 0.318 | 0.329 | 0.316 | 0.326 | 0.314 | 0.27 | 0.309 | 0.338 | – | – | – | – | – |
| NCI-H2342 | 0.559 | 0.478 | 0.446 | 0.584 | 0.477 | 0.385 | 0.363 | 0.304 | 0.333 | 0.36 | 0.559 | 0.438 | 0.524 | 0.56 | 0.633 | – | – | – | – | – |
| SW 900 | 0.391 | 0.432 | 0.482 | 0.431 | 0.421 | 0.801 | 0.744 | 0.814 | 0.656 | 0.649 | 0.41 | 0.301 | 0.339 | 0.37 | 0.266 | – | – | – | – | – |
